Assay results taken from patent publication US10835500B2, “Medicament for accelerated wound healing” (Symrise AG, priority 2014, dated 2020).

Tests used:
Assay type in all cases: cell-based, human
ERK1/2 MAPK = assay: Western Blot, phosphorylation of ERK1/2 MAPK in HaCaT cells; conditions: 500 μM
Description: (§1) In the following, an investigation was to be conducted to determine whether a MAPK signalling pathway is activated by Sandalore® stimulation in skin cells, and if so, which pathway is involved. For detection, HaCaT cells were stimulated for 0-30 min with 500 μM of Sandalore®, and the proteins were then isolated and used in Western Blot assays.
In order to reveal a possible interaction of the two MAPK signalling pathways, ERK1/2 phosphorylation in the presence of the p38 MAPK inhibitor SB203580 and p38 MAPK phosphorylation in the presence of the ERK1/2 MAPK inhibitor U0126 were investigated. Phosphorylation was increased for both kinases in the presence of the respective inhibitors compared to the cells stimulated with Sandalore® only. This effect was significant for p38 MAPK (FIG. 17c).
(§2) Effect of Sandalore® stimulation on phosphorylation of MAP kinases in skin cells. A) Western Blot for investigating the phosphorylation of the MAP kinases in HaCaT cells stimulated for 0, 5, 15 and 30 min with Sandalore®(500 μM). In order to confirm uniform protein volume, ▪-tubulin was used as a control. ERK1/2: 42/44 kDa; p38: 43 kDa; JNK/SAPK: 46/54 kDA; ▪-tubulin: 52 kDa. B) Quantitative evaluation of p38 and ERK1/2 phosphorylation of HaCaT cells stimulated for 30 min with Sandalore®(500 μM) or additionally with the p38 inhibitor 5B203580 (10 μM) or ERK1/2 inhibitor U0126 (10 μM). For evaluation, the ratio of the phosphorylated (p) and unphosphorylated proteins was established and compared to that of untreated cells. Mean values including standard error. Mann-Whitney U test. *: p<0.05; ***: p<0.001. In C), the inhibitors of the respective other MAP kinase were used, and phosphorylation was compared to the cells stimulated with Sandalore® (500 μM) alone. Mean values including standard error. Mann-Whitney U test. *: p<0.05. The Western Blot analyses were carried out with three different protein isolations.

IL-1α = assay: Quantitative real-time PCR of IL-1α in HaCaT cells
Description: (§3) In order to investigate interleukin secretion, quantitative real-time PCR was first carried out. For this purpose, RNA from HaCaT cells was used that had previously been stimulated for 6 or 24 hours with Sandalore®. Detection was carried out with specific primers of various interleukins (IL-1α, IL-1β, IL-6, IL-8) and tumor necrosis factor (TNF▪). […] In order to corroborate the results, an ELISA assay was carried out, in which the secreted interleukins in the supernatant of the cells can be detected by means of an immunological reaction. By means of the assay used, secretion of the interleukins (IL-1α, IL-1β, IL-2, IL-4, IL-6, IL-8, IL-10, IL-12, and IL-17α), TNFα, γ-interferon (IFNγ), and granulocyte macrophage colony-stimulating factor (GMCSF) was investigated.
(§4) Investigation of interleukin secretion and phosphorylation of Akt protein kinase after Sandalore® stimulation. A) Investigation of the regulation of interleukins in HaCaT cells by means of qRT-PCR after stimulation with Sandalore® (500 μM) for 6 h and 24 h. 0.1% DMSO was used as a control. GAPDH was used as a reference gene, and the relative expression between untreated and stimulated cells was determined. Mean values including standard error. n=3 experiments. […] The measured optical density of the treated cells at 450 nm was expressed relative to the background. […]

JNK/SAPK = assay: Western Blot, phosphorylation of JNK/SAPK in HaCaT cells; conditions: 500 μM, 0-30 min
Description: as §1
as §2, with “The Western Blot analyses were carried out with three different protein isolations.” left out

IL-1β = assay: Quantitative real-time PCR of IL-1β in HaCaT cells; conditions: after 24 hours, 500 μM
Description: as §3, §4

p38 MAPK = assay: Western Blot, phosphorylation of p38 MAPK in HaCaT cells; conditions: 500 μM
Description: as §1
In order to reveal a possible interaction of the two MAPK signalling pathways, ERK1/2 phosphorylation in the presence of the p38 MAPK inhibitor SB203580 and p38 MAPK phosphorylation in the presence of the ERK1/2 MAPK inhibitor U0126 were investigated.
as §2, with “A)” for “Effect of Sandalore® stimulation on phosphorylation of MAP kinases in skin cells. A)”, “In order to confirm uniform protein volume, ▪-tubulin was used as a control.” left out

CC1=CCC(CCC(C)C(C)O)C1(C)C (centres unmarked) [Sandalore®]
phosphorylation of ERK1/2 MAPK, quantification (ERK1/2 MAPK; 30-minute stimulation): significant increase | phosphorylation of ERK1/2 MAPK (ERK1/2 MAPK; within 5-30 min): increased phosphorylation | increase of expression of IL-1α relative to the control (0.1% DMSO) (IL-1α; after 24 hours, 500 μM): approx. 10,000% | expression of IL-1α (IL-1α; summary statement): increased | phosphorylation of JNK/SAPK (JNK/SAPK): no phosphorylation of JNK/SAPK | increase of expression of IL-1β relative to the control (0.1% DMSO) (IL-1β): approx. 1700% | phosphorylation of p38 MAPK, quantification (p38 MAPK; 30-minute stimulation): significant increase | phosphorylation of p38 MAPK (p38 MAPK; within 5-30 min): increased phosphorylation
